Measured values published in PMC3961306, “Comparison of the Cancer Gene Targeting and Biochemical Selectivities of All Targeted Kinase Inhibitors Approved for Clinical Use” (PLoS ONE, 2014).

Key:
Experiment in all cases: Kinase profiling in a biochemical assay panel (mobility shift assays and ELISA), %-inhibition at 1 μM; selectivity entropy
[1] = target: panel of more than 300 wild-type and mutant kinases (313 kinase panel) (Homo sapiens, UniProt P06213)
[2] = target: panel of more than 300 wild-type and mutant kinases (313 kinase panel) (Homo sapiens, UniProt P10721)
[3] = target: T1, panel of more than 300 wild-type and mutant kinases (313 kinase panel) (Homo sapiens, UniProt P42680)
T1 sequence (P42680 1-631): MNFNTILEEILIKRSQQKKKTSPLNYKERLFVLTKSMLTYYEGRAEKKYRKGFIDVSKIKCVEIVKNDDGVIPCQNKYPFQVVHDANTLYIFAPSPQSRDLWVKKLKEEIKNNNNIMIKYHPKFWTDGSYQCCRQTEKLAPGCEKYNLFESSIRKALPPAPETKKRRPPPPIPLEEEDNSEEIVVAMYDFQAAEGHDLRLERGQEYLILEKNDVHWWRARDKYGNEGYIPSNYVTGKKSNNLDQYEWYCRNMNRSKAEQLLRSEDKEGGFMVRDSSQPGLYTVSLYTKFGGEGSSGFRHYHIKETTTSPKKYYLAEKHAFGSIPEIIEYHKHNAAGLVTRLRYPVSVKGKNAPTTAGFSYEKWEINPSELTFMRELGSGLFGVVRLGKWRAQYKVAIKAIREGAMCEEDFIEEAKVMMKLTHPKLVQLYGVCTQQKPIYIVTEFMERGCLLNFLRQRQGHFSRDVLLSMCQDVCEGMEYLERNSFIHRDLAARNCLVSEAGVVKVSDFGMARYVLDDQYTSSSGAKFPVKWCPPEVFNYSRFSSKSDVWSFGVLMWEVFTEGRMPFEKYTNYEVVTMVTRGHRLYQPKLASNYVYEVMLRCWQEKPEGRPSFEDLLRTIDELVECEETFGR

[4] = target: panel of more than 300 wild-type and mutant kinases (313 kinase panel) (Homo sapiens, UniProt Q00534)
[5] = target: T2, panel of more than 300 wild-type and mutant kinases (313 kinase panel) (Homo sapiens, UniProt Q13163)
T2 sequence (Q13163 1-448): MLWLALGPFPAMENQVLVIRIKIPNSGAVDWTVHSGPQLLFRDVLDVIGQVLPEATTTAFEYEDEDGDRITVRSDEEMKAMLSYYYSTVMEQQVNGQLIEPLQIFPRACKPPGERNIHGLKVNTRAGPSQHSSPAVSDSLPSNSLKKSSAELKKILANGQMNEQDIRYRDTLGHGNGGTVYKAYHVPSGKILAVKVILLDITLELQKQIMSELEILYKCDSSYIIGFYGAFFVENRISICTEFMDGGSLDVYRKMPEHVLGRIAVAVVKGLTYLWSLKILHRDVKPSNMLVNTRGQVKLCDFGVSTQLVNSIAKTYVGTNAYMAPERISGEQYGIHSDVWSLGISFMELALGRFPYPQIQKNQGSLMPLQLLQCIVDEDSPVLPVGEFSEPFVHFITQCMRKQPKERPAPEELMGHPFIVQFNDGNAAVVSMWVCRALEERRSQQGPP

[6] = target: T3, panel of more than 300 wild-type and mutant kinases (313 kinase panel) (Homo sapiens, UniProt Q96BR1)
T3 sequence (Q96BR1 1-496): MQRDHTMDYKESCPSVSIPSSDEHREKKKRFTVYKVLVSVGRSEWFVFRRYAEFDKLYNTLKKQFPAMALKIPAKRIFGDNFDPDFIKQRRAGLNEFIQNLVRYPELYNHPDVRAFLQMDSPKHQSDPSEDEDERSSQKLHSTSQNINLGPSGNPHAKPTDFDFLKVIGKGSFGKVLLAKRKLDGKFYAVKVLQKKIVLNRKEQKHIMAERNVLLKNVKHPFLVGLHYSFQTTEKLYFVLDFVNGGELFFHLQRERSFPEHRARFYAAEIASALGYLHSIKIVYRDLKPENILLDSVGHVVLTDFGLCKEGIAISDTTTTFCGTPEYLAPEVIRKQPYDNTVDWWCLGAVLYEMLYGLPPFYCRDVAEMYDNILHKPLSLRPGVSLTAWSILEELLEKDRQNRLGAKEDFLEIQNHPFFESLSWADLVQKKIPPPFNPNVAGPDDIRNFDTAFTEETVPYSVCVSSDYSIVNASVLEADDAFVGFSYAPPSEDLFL

[7] = target: panel of more than 300 wild-type and mutant kinases (313 kinase panel) (Homo sapiens, UniProt Q9Y243)
[8] = target: T4, panel of more than 300 wild-type and mutant kinases (313 kinase panel) (Homo sapiens, UniProt Q9Y2U5)
T4 sequence (Q9Y2U5 1-619): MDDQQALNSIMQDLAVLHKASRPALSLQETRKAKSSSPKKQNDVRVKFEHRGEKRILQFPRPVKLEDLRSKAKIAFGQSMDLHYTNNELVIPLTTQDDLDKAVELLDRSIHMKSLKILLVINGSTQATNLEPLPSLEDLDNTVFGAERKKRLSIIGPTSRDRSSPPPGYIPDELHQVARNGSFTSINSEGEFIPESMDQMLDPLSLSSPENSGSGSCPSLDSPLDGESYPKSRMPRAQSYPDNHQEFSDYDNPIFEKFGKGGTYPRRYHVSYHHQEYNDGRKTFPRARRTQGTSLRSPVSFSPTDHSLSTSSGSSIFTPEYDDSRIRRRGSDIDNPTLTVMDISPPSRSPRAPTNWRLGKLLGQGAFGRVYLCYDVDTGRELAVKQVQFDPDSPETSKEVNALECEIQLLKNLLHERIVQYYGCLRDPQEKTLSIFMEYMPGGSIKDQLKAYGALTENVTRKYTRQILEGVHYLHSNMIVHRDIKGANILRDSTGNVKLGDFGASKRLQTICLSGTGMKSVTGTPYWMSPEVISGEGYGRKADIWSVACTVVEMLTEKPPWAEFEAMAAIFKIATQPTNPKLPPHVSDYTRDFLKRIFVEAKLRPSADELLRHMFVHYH

[9] = kinase CDK6/CycD3, 1 μM compound
[10] = kinase MAP2K5, compound at 1 μM
[11] = kinase MAP3K2, compound at 1 μM

Sequence of panel of more than 300 wild-type and mutant kinases (313 kinase panel) (Homo sapiens, UniProt Q9Y243) (Q9Y243 whole entry, change not shown): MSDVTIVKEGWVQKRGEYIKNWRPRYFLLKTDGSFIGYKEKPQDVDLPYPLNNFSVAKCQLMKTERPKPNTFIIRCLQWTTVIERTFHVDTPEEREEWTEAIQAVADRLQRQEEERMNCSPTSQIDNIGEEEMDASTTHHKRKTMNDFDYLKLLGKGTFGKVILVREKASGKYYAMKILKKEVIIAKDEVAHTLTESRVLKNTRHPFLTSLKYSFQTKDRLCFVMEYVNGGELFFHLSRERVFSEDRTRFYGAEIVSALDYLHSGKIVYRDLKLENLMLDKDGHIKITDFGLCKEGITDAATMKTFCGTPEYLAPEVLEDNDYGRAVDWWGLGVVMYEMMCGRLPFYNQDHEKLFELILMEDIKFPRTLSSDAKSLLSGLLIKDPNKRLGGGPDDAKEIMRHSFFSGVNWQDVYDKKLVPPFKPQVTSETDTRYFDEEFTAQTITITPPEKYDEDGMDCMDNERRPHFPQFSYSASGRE
Sequence of panel of more than 300 wild-type and mutant kinases (313 kinase panel) (Homo sapiens, UniProt P10721) (P10721 26-976, change not shown): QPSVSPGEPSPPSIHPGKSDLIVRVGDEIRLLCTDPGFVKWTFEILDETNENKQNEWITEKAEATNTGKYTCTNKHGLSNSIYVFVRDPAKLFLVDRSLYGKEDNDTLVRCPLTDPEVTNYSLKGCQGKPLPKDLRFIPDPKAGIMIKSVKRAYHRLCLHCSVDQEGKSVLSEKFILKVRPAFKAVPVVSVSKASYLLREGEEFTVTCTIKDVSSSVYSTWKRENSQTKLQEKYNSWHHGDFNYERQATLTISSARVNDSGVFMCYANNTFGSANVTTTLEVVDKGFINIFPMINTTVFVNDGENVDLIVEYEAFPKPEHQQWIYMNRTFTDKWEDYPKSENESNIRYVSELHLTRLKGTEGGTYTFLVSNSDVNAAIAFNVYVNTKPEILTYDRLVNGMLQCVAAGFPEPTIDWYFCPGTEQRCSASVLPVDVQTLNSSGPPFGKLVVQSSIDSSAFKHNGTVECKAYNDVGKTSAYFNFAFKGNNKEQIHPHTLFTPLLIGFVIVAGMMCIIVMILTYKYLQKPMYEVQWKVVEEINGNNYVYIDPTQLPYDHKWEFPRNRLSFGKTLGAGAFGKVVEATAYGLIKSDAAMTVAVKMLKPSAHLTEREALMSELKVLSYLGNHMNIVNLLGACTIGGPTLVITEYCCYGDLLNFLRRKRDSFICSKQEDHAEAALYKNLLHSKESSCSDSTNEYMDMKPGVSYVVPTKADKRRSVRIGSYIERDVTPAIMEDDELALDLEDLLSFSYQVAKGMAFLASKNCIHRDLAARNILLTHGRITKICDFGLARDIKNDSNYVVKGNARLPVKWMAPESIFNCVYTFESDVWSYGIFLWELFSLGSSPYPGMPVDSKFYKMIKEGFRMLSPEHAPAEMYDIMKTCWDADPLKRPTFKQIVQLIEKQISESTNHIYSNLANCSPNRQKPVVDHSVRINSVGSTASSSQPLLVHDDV
Sequence of panel of more than 300 wild-type and mutant kinases (313 kinase panel) (Homo sapiens, UniProt P06213) (P06213 28-1382, change not shown): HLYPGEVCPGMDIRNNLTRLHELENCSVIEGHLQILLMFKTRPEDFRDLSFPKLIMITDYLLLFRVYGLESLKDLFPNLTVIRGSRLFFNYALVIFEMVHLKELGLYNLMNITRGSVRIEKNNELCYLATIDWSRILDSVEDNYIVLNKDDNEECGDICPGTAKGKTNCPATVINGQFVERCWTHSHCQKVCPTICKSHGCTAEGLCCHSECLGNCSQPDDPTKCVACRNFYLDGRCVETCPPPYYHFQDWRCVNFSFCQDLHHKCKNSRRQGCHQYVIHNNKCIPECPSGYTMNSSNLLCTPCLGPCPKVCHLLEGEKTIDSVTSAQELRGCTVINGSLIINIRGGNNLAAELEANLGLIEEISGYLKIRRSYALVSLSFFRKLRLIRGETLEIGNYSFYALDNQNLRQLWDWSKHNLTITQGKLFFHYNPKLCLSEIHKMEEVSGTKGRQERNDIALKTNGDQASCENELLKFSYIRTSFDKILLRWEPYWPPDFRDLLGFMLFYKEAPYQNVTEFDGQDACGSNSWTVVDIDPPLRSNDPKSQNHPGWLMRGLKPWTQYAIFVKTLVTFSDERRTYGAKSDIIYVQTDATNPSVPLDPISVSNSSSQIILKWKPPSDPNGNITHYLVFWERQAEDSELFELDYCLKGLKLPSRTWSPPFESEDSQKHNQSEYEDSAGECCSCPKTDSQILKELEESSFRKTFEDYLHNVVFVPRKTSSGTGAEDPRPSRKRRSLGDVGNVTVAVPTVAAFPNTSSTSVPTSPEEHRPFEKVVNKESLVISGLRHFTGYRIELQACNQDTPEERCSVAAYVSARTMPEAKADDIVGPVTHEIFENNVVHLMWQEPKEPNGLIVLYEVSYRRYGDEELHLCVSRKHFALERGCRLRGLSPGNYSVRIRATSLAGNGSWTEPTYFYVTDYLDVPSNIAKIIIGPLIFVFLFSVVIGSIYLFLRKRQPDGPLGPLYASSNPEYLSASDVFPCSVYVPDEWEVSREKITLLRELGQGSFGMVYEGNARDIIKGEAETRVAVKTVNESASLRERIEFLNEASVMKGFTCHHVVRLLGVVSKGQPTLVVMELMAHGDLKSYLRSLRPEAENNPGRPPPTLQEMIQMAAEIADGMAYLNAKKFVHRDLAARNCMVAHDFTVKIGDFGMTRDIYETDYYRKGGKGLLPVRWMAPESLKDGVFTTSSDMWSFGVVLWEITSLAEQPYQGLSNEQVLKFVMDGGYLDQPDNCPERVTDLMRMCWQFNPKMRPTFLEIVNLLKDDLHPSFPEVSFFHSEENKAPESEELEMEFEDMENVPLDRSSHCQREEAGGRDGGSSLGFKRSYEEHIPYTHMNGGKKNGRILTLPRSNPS

CS(=O)(=O)CCNCc1ccc(-c2ccc3ncnc(Nc4ccc(OCc5cccc(F)c5)c(Cl)c4)c3c2)o1 [lapatinib]
%-inhibition of INSR ([1]; kinase INSR, compound at 1 μM): -1.26%
%-inhibition of KIT ([2]; 1 µM): 9%
%-inhibition of TEC ([3]; kinase TEC, 1 μM): 0%
%-inhibition, CDK6/CycD3 [4, 9]: 5%
%-inhibition of MAP2K5 [5, 10]: 1.63%
%-inhibition of SGK3 ([6]; 1 µM): 4.58%
%-inhibition, AKT3 ([7]; kinase AKT3, 1 μM compound): 5%
%-inhibition of MAP3K2 [8, 11]: 5.6%

C#Cc1cccc(Nc2ncnc3cc(OCCOC)c(OCCOC)cc23)c1 [erlotinib]
%-inhibition of INSR ([1]; 1 µM): 4%
%-inhibition of KIT ([2]; 1 µM): 32%
%-inhibition of TEC ([3]; 1 µM): 20%
%-inhibition, CDK6/CycD3 ([4]; 1 µM): 9%
%-inhibition of MAP2K5 ([5]; 1 µM): 92%
%-inhibition of SGK3 ([6]; 1 µM): 8%
%-inhibition, AKT3 ([7]; 1 µM): 8%
%-inhibition of MAP3K2 ([8]; 1 µM): 14%

Cc1cn(-c2cc(NC(=O)c3ccc(C)c(Nc4nccc(-c5cccnc5)n4)c3)cc(C(F)(F)F)c2)cn1 [nilotinib]
%-inhibition of INSR ([1]; kinase INSR, compound at 1 μM): -8%
%-inhibition of KIT ([2]; 1 µM): 96%
%-inhibition of TEC ([3]; kinase TEC, 1 μM): -0.144%
%-inhibition, CDK6/CycD3 [4, 9]: -23%
%-inhibition of MAP2K5 [5, 10]: -7.56%
%-inhibition of SGK3 ([6]; kinase SGK3, 1 μM): 15%
%-inhibition, AKT3 ([7]; kinase AKT3, 1 μM compound): 1.58%
%-inhibition of MAP3K2 [8, 11]: -26%

CC(=O)Nc1cccc(-n2c(=O)n(C3CC3)c(=O)c3c(Nc4ccc(I)cc4F)n(C)c(=O)c(C)c32)c1 [trametinib]
%-inhibition of INSR ([1]; kinase INSR, compound at 1 μM): -30%
%-inhibition of KIT ([2]; kinase KIT, compound at 1 μM): -0.648%
%-inhibition of TEC ([3]; kinase TEC, 1 μM): -7.53%
%-inhibition, CDK6/CycD3 [4, 9]: -4.23%
%-inhibition of MAP2K5 [5, 10]: 13%
%-inhibition of SGK3 ([6]; kinase SGK3, 1 μM): 0.769%
%-inhibition, AKT3 ([7]; kinase AKT3, 1 μM compound): -5.3%
%-inhibition of MAP3K2 [8, 11]: 0.801%
